Test results from patent publication US12649748B2, “Wee1 inhibitor and use thereof” (JIANGSU TASLY DIYI PHARMACEUTICAL CO., LTD., priority 2021, dated 2026).
Where two headings read alike, the source gives them in different places.

How the values were obtained:
MIA Paca-2 cells = assay: Anti-proliferative effect by Cell Titer-Glo, MIA Paca-2; type: cell-based; conditions: Homo sapiens, read-out: IC50 measured value MIA Paca-2
Procedure: (§1) Compound solutions of different concentration gradients were prepared. DMSO was dissolved to a concentration of 10 mM test compound and 10 mM reference compound AZD1775, and the compounds were serially diluted in culture medium for a total of 9 dose points, with 2 parallel replicates set at each concentration. The cell growth group without compound was used as a positive control (maximum signal control) and the medium was used as a negative control (minimum signal control), while ensuring that the final level of DMSO in each reaction well was 0.2%. After removing the medium from the 384-well plate, 25 ul of the configured compound at different concentrations was transferred into the well plate and the compound and cells were incubated in the cell incubator at 37° C. with 5% CO2 for 3 days.
(§2) The 384-well plates were removed from the cell incubator and allowed to equilibrate for 1 h to room temperature. 25 ul of Cell Titer-Glo assay was added to each well, lysed on a shaker for 2 min and then read out (Luminescence) using a BMG PHERAStar after 10 min incubation. Calculate the inhibition rate from the luminescence signal: first calculate the average of the positive control (maximum signal control) and the negative control (minimum signal control).
(§3) [formula] to calculate the rate of inhibition of the cells by different concentrations of the compounds. The IC50 of the compound on cell activity inhibition was calculated by fitting a log(inhibitor) vs. response-Variable slope model to GraphPad Prism 6. The fitted equation was: Y=Bottom+(Top−Bottom)/(1+10^((Log IC50−X)*HillSlope)), where Y represents the rate of inhibition and X represents the concentration of the known compound after Log.

Wee1 protein = molecular target: T1, Wee1 protein (Homo sapiens, UniProt P30291); assay: Binding of compound to Wee1 protein and Tracer 178 by TR-FRET; conditions: inhibitory activity against Wee1 kinase, read-out: IC50 measured value
T1 construct: purchased Thermo Fisher PR7373A
T1 sequence (P30291 whole entry): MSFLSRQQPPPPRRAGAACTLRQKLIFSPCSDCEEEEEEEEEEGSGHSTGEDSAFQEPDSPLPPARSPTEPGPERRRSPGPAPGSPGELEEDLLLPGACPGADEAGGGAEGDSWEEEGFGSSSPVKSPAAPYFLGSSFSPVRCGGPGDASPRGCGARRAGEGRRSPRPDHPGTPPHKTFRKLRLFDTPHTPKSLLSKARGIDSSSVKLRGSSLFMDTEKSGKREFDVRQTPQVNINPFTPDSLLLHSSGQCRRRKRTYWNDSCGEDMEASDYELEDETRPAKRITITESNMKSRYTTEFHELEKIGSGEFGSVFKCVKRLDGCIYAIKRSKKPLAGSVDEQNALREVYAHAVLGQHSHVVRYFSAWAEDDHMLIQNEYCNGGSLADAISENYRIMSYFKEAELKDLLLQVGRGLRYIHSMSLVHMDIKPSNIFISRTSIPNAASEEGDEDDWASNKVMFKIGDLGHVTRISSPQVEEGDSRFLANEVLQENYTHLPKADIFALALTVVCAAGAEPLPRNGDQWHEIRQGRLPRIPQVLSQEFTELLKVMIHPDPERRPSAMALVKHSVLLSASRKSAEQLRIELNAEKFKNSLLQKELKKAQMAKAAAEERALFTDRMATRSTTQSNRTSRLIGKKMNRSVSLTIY
Procedure: First, solutions of the compounds in different concentration gradients were prepared. […] DMSO was added as a positive control (maximal signal control) and a negative control (minimal signal control) and a final level of 0.25% DMSO was ensured in each reaction well.
WEE1 (Thermo Fisher, Cat #PR7373A) protein in buffer (50 mM Hepes pH 7.5, 10 mM MgCl2, 1 mM EGTA, 0.01% Brij-35) at 15 nM) in different concentrations of compound, and Tracer 178 (Invitrogen, PV5593) and MAb Anti-GST-Eu crypate (Cisbio, 61GSTKLA) were added to 384-well plates (Corning, cat #3574), centrifuged at 1000 rpm for 1 min and the 384-well plates were incubated in a constant temperature shaker for 60 min at 25° C. and 300 rpm. Tracer 178 and MAb Anti-GST-Eu crypate were prepared in buffer (50 mM HEPES pH 7.5, 10 mM MgCl2, 1 mM EGTA, 0.01% Brij-35) with a final reaction concentration of 50 nM for Tracer 178 and a final concentration of 2 nM for MAb Anti-GST-Eu crypate, where the negative control (minimal signal control) used an equal amount of buffer in place of the protein solution.
After incubation, readings were performed using BMG PHERAStar (excitation light at 337 nm and emission light at wavelength values of 620 nm and 665 nm to read the fluorescence signal values). […] The IC50 for inhibition of enzyme activity by the compounds was then calculated using GraphPad Prism 6 and fitted with a log (inhibitor) vs. response-Variable slope mode. The fitting equation was: Y=Bottom+(Top-Bottom)/(1+10^((Log IC50−X)*HillSlope)), where Y represents the percentage of residual enzyme activity known and X represents the known concentration of compound after the logarithm.

H1299 cells = assay: Anti-proliferative effect by Cell Titer-Glo, H1299; type: cell-based; conditions: Homo sapiens, NCI-H1299, 72 h, read-out: IC50 measured value H1299
Procedure: as §1, §2, §3

[1] = 72 h, MIA Paca-2 cells, 3 days, Cell Titer-Glo
[2] = H1299 cells, 3 days, Cell Titer-Glo

Compound	IC50 (MIA Paca-2 cells; [1]) [µM]	IC50 (Wee1 protein) [µM]	IC50 (H1299 cells; [2]) [µM]	IC50 (H1299 cells) [µM]	IC50 (MIA Paca-2 cells; MIA PaCa-2, 72 h) [µM]
CN1CCN(c2ccc(Nc3ncc4cnn(-c5cccc(N=S(C)(C)=O)c5)c4n3)nc2)CC1 [Compound 56]	5 to 20	0.1 to 1	5 to 20		
CN1CCN(c2ccc(Nc3ncc4cnn(-c5cccc(C6(S(C)(=O)=O)CC6)n5)c4n3)cc2)CC1 [Compound 5]		0.01 to 0.1		1 to 5	
CN1CCN(c2ccc(Nc3ncc4cnn(-c5cccc(C(C)(C)O)c5)c4n3)cn2)CC1 [Compound 47]	0.1 to 1	0.1 to 1	0.1 to 1		
COc1cc(Nc2ncc3cnn(-c4cccc(N=S(C)(C)=O)n4)c3n2)ccc1N1CCN(C)CC1 [Compound 26]	0.1 to 1	0.001 to 0.01	1 to 5		
CN1CCN(c2ccc(Nc3ncc4cnn(-c5ccc6scnc6c5)c4n3)cc2)CC1 [Compound 37]	0.1 to 1	0.01 to 0.1	0.1 to 1		
CN1CCN(c2c(Cl)cc(Nc3ncc4cnn(-c5cccc(N=S(C)(C)=O)n5)c4n3)cc2Cl)CC1 [Compound 17]	0.1 to 1	0.01 to 0.1	5 to 20		
COc1cc(N2CCN(C)CC2)ccc1Nc1ncc2cnn(-c3cccc(N=S(C)(C)=O)n3)c2n1 [Compound 22]	5 to 20	0.1 to 1	5 to 20		
CN1CCN(c2ccc(Nc3ncc4cnn(-c5ccc6nncn6c5)c4n3)cc2)CC1 [Compound 62]	1 to 5	0.1 to 1	5 to 20		
CN1CC2CC1CN2c1ccc(Nc2ncc3cnn(-c4cccc(N=S(C)(C)=O)n4)c3n2)cc1 (centres unmarked) [Compound 13]		0.001 to 0.01	5 to 20		
CN1CCN(c2ccc(Nc3ncc4cnn(-c5cccc(N=S(C)(C)=O)c5)c4n3)cc2)CC1 [Compound 30]		0.01 to 0.1		1 to 5	0.1 to 1
CN1CCC2(CC1)CCN(c1ccc(Nc3ncc4cnn(-c5cccc(N=S(C)(C)=O)n5)c4n3)cc1)CC2 [Compound 25]	0.1 to 1	0.001 to 0.01	0.1 to 1		
CN(C)C1CCN(c2ccc(Nc3ncc4cnn(-c5cccc(N=S(C)(C)=O)n5)c4n3)cc2)CC1 [Compound 9]		0.001 to 0.01		1 to 5	
CN1CCN(c2ccc(Nc3ncc4c(C(F)(F)F)nn(-c5cccc(C(C)(C)O)c5)c4n3)cc2)CC1 [Compound 35]	5 to 20	0.1 to 1	5 to 20		
CN1CCN(c2ccc(Nc3ncc4cnn(-c5cccc(-n6ccccc6=O)c5)c4n3)cc2)CC1 [Compound 48]	1 to 5	0.01 to 0.1	1 to 5		
Cc1cc(Nc2ncc3cnn(-c4cccc(C(C)(C)O)n4)c3n2)ccc1N1CCN(C)CC1 [Compound 21]	0.1 to 1	0.01 to 0.1	1 to 5		
CN1CCN(c2ccc(Nc3ncc4cnn(-c5ccc6c(c5)C(=O)NC6)c4n3)cc2)CC1 [Compound 46]	0.1 to 1	0.01 to 0.1	1 to 5		
CN1CCN(c2ccc(Nc3ncc4cnn(-c5cccc(N=S(C)(C)=O)n5)c4n3)cc2F)CC1 [Compound 19]	0.1 to 1	0.01 to 0.1	1 to 5		
CN1CCN(c2ccc(Nc3ncc4c(=O)n(C)n(-c5cccc(N=S(C)(C)=O)n5)c4n3)cc2)CC1 [Compound 27A]	0.1 to 1	0.001 to 0.01	0.1 to 1		

Compound	IC50 (MIA Paca-2 cells; [1]) [µM]	IC50 (Wee1 protein) [µM]	IC50 (H1299 cells; [2]) [µM]	IC50 (H1299 cells) [µM]	IC50 (MIA Paca-2 cells; MIA PaCa-2, 72 h) [µM]
CN1CCN(c2ccc(Nc3ncc4cnn(-c5cccc(C(C)(C)O)c5)c4n3)cc2)CC1 [Compound 12]		0.01 to 0.1	0.1 to 1		
CN1CCN(c2ccc(Nc3ncc4cnn(-c5cccc6c5CCC6(C)O)c4n3)cc2)CC1 (centres unmarked) [Compound 44]	0.1 to 1	0.1 to 1	0.1 to 1		
CN1CCN(c2ccc(Nc3ncc4cnn(-c5ccnc(C(C)(C)O)c5)c4n3)cc2)CC1 [Compound 29]	0.1 to 1	0.1 to 1	0.1 to 1		
CN1CCN(c2ccc(Nc3ncc4cnn(-c5ccc6ncc(C(C)(C)O)n6c5)c4n3)cc2)CC1 [Compound 55]	1 to 5	0.01 to 0.1	1 to 5		
CN1CCN(c2ccc(Nc3ncc4cnn(-c5ccc6cc[nH]c6c5)c4n3)cc2)CC1 [Compound 41]	1 to 5	0.01 to 0.1	1 to 5		
CN1CCN(c2ccc(Nc3ncc4cnn(-c5ccc6c(c5)C(O)CO6)c4n3)cc2)CC1 (centres unmarked) [Compound 39]	0.1 to 1	0.01 to 0.1	1 to 5		
CN1CCN(c2ccc(Nc3ncc4cnn(-c5cccc(C(C)(O)C(F)(F)F)n5)c4n3)cc2)CC1 (centres unmarked) [Compound 4]		0.01 to 0.1	1 to 5		
CCN1C(=O)COc2ccc(-n3ncc4cnc(Nc5ccc(N6CCN(C)CC6)cc5)nc43)cc21 [Compound 59]		0.01 to 0.1		0.1 to 1	0.1 to 1
CS(C)(=O)=Nc1cccc(-n2ncc3cnc(Nc4ccc5c(c4)CNCC5)nc32)n1 [Compound 7]		0.001 to 0.01	1 to 5		
CN1CCN(c2ccc(Nc3ncc4cnn(-c5ccc6c(c5)C(=O)NCC6)c4n3)cc2)CC1 [Compound 38]	0.1 to 1	0.01 to 0.1	0.1 to 1		
Cc1nc2cccc(-n3ncc4cnc(Nc5ccc(N6CCN(C)CC6)cc5)nc43)c2o1 [Compound 51]	0.1 to 1	0.01 to 0.1	0.1 to 1		
CN1CCN(c2ccc(Nc3ncc4cnn(-c5ccc6c(c5)c(N)nn6C)c4n3)cc2)CC1 [Compound 49]		0.1 to 1		1 to 5	1 to 5
CS(C)(=O)=Nc1cccc(-n2ncc3cnc(Nc4ccc(CC5C(=O)C6CCN5CC6)cc4)nc32)n1 (centres unmarked) [Compound 15]	0.1 to 1	0.01 to 0.1	1 to 5		
CCn1ncc2ccc(-n3ncc4cnc(Nc5ccc(N6CCN(C)CC6)cc5)nc43)nc21 [Compound 60]		0.01 to 0.1		1 to 5	0.1 to 1
CCC1(O)CCc2ccc(-n3ncc4cnc(Nc5ccc(N6CCN(C)CC6)cc5)nc43)nc21 (centres unmarked) [Compound 57]	0.1 to 1	0.1 to 1	1 to 5		
CCN1C(=O)C2(CC2)c2ccc(-n3ncc4cnc(Nc5ccc(N6CCN(C)CC6)cc5)nc43)cc21 [Compound 61]		0.1 to 1		5 to 20	1 to 5
CN1CCc2ccc(Nc3ncc4cnn(-c5cccc(N=S(C)(C)=O)n5)c4n3)cc2C1 [Compound 8]		0.001 to 0.01	1 to 5		
